Experimental data from US9844549B2, “2-aminothiazole derivative or salt thereof” (ASTELLAS PHARMA INC., priority 2014, dated 2017).
Where a name gives a salt, the structure may show the parent alone.

Key:
[1] = tested on: rat isolated bladder; assay: Effect on electrical field stimulation-induced contraction in rat isolated bladder; conditions: AUC of contraction, value before treatment = 100%, SD female rat bladder, read-out: Enhancement rate of extracted bladder contractions (% of pre)
Procedure: Test Example 2: Effect on Electrical Field Stimulation-Induced Contraction in Rat Isolated Bladder
As an effect on the nerve stimulation-dependent bladder contraction in in vitro, the effect of the Example compounds of the present invention in the electrical field stimulation-induced contraction of the rat isolated bladder was measured by the following method. That is, a bladder specimen having a width of about 2 mm and a length of about 10 mm in the longitudinal direction from the bladder isolated from a Sprague-Dawley (SD) female rat (Japan SLC, Inc.) was prepared. The prepared bladder specimen was suspended in an organ bath filled with 10 mL of a Krebs-Henseleite solution. The Krebs-Henseleite solution was aerated at 95% 02 and 5% CO2, and kept at 37° C. After carrying out stabilization at an initial tension of 1 g, the contraction was caused twice with 60 mM KCl. After stabilization of the specimen with a Krebs-Henseleite solution, the contraction was caused by carrying out electrical field stimulation at 20 V with an electrical stimulation device (Nihon Kohden) (a stimulation frequency of 8 Hz, a pulse width of 0.3 msec, and a stimulation time of 10 seconds). By repeating the transmural electrical stimulation at an interval of 2 minutes, a voltage was adjusted to obtain a contraction height of approximately 50% of the contractile response at 20 V. After the contraction by electrical field stimulation had been stabilized, 10 μL of the test substances dissolved in 100% DMSO in advance (final concentrations of 3 μM, 10 μM, and 30 μM) was added thereto. The test substances were cumulatively administered at the following concentrations after the low-concentration contractile response had been stabilized. The response was taken into a personal computer through a PowerLab (registered trademark) (AD Instruments, Inc.), and analyzed by LabChart (registered trademark) (AD Instruments, Inc.). When the area under the response (area under curve, AUC) in each contraction response was calculated and the value before treatment with the test substance was taken as 100%, the enhancement rate (% of pre) of the isolated bladder contractions after treatment with the test substance was calculated.

[2] = tested on: anesthetized rats; assay: Effect on pelvic nerve stimulation-induced elevation of intravesical pressure in anesthetized rats; format: in vivo; conditions: Rattus norvegicus; 3 mg/kg intravenous; maximum effect within one hour; AUC, pre-treatment = 100%; SD female rats; read-out: Increase rate of intravesical pressure (% of pre)
Procedure: Test Example 3: Effect on Pelvic Nerve Stimulation-Induced Elevation of Intravesical Pressure in Anesthetized Rats
The effect of the Example compounds of the present invention in the pelvic nerve electrical stimulation-induced elevation of intravesical pressure using rats as an action of nerve stimulation-dependent bladder contraction in vivo was measured by the following method. That is, SD female rats (Japan SLC, Inc.) were used and its lower abdomen was dissected at the midline under pentobarbital anesthesia (50 mg/kg ip). After ligating and cutting the ureter on both sides, a cannula (PE-50) for measuring the intravesical pressure was inserted into the bladder from the external urethral opening and fixed by a clip. After injecting about 200 μL of saline through the cannula that had been inserted into the bladder, the other side was connected to a pressure transducer to measure the intravesical pressure. Under a stereoscopic microscope observation, the pelvic nerve in the vicinity of the bladder was peeled and an electrode for nerve stimulation (unique Medical) was placed. The abdominal cavity was filled with mineral oil (MP BIOMEDICALS). After placing in a post-operative stabilization period, the pelvic nerve was subjected to electrical stimulation (stimulation voltage: 10 V, stimulation frequency: 8 Hz, pulse width: 0.3 msec, and stimulation time: 10 seconds) to elicit the elevation of intravesical pressure, using an electrical stimulator (Nihon Kohden). By repeating the electrical stimulation at an interval of 2 minutes while adjusting the voltage, the voltage was adjusted to elicit about 50% to 70% elevation of intravesical pressure elicited at 10 V. Thereafter, by repeating the electrical stimulation at an interval of 10 minutes, the increase in the intravesical pressure by electrical stimulation was stabilized three times or more, and the test substance (an administration amount of 3 mg/kg) was then administered from the catheter detained in the vein at a volume of 1 mL/kg, thus measuring an effect of the elevation of the intravesical pressure of the test substance for 1 hour. The test substance was dissolved in water supplemented with 10% DMSO and 10% Cremophor.
The response was applied to a personal computer through a PowerLab (registered trademark) and analyzed by LabChart (registered trademark). The AUC of each elevation of the intravesical pressure was calculated, the intravesical pressure elevation rate (% of pre) after the treatment with the test substance was calculated by taking an average value of the values measured three times before the treatment with the test substance as 100%, and the maximum effect during a period within one hour after administration of the compound was considered as the effect of the test substance.

## CC1CC[C@@H](C)N1Cc1sc(Nc2ncnc(N3CCN(CCC(=O)O)CC3)c2F)nc1-c1cc(F)cc(C(F)(F)F)c1 (stereo in doubt) [Example 8, sodium 3-(4-{6-[(5-{[(2R,5R)-2,5-dimethylpyrrolidin-1-yl]methyl}-4-[3-fluoro-5-(trifluoromethyl)phenyl]-1,3-thiazol-2-yl)amino]-5-fluoropyrimidin-4-yl}piperazin-1-yl)propanoate]
[1]
  activity at 10 µM: 193%
[2]
  response vs control in vivo at 3 mg/kg: 178%

## COC[C@@H]1CN(c2ncnc(Nc3nc(-c4ccc(Cl)c(C(F)(F)F)c4)c(CN4CCC[C@H]4C)s3)c2F)CCN1CCC(=O)O [Example 1, 3-[(2S)-4-{6-[(4-[4-chloro-3-(trifluoromethyl)phenyl]-5-{[(2R)-2-methylpyrrolidin-1-yl]methyl}-1,3-thiazol-2-yl)amino]-5-fluoropyrimidin-4-yl}-2-(methoxymethyl)piperazin-1-yl]propanoic acid trihydrochloride]
[1]
  activity at 10 µM: 120%
[2]
  response vs control in vivo at 3 mg/kg: 197%

## Cc1nc(Nc2nc(-c3cc(F)cc(C(F)(F)F)c3)c(CN3CCC[C@H]3C)s2)cc(N2CCN(CCC(=O)O)CC2)n1 [Example 3, 3-(4-{6-[(4-[3-fluoro-5-(trifluoromethyl)phenyl]-5-{[(2R)-2-methylpyrrolidin-1-yl]methyl}-1,3-thiazol-2-yl)amino]-2-methylpyrimidin-4-yl}piperazin-1-yl)propanoic acid trihydrochloride]
[1]
  activity at 10 µM: 136%
[2]
  response vs control in vivo at 3 mg/kg: 146%

## Cc1nc(Nc2nc(-c3cc(F)cc(C(F)(F)F)c3)c(CN3[C@H](C)CC[C@H]3C)s2)c(F)c(N2CCN(CCC(=O)O)CC2)n1 [Example 4, sodium 3-(4-{6-[(5-{[(2R,5R)-2,5-dimethylpyrrolidin-1-yl]methyl}-4-[3-fluoro-5-(trifluoromethyl)phenyl]-1,3-thiazol-2-yl)amino]-5-fluoro-2-methylpyrimidin-4-yl}piperazin-1-yl)propanoate]
[1]
  activity at 10 µM: 127%
[2]
  response vs control in vivo at 3 mg/kg: 178%

## C[C@@H]1CCCN1Cc1sc(Nc2ncnc(N3CCN(CCC(=O)O)CC3)c2F)nc1-c1ccc(Cl)c(C(F)(F)F)c1 [Example 9, 3-(4-{6-[(4-[4-chloro-3-(trifluoromethyl)phenyl]-5-{[(2R)-2-methylpyrrolidin-1-yl]methyl}-1,3-thiazol-2-yl)amino]-5-fluoropyrimidin-4-yl}piperazin-1-yl)propanoic acid trihydrochloride]
[1]
  activity at 10 µM: 187%
[2]
  response vs control in vivo at 3 mg/kg: 200%

## COC[C@@H]1CN(c2ncnc(Nc3nc(-c4cc(F)cc(C(F)(F)F)c4)c(CN4CCC[C@H]4C)s3)c2F)CCN1CCC(=O)O [Example 10, 3-[(2S)-4-{5-fluoro-6-[(4-[3-fluoro-5-(trifluoromethyl)phenyl]-5-{[(2R)-2-methylpyrrolidin-1-yl]methyl}-1,3-thiazol-2-yl)amino]pyrimidin-4-yl}-2-(methoxymethyl)piperazin-1-yl]propanoic acid trihydrochloride]
[1]
  activity at 10 µM: 271%
[2]
  response vs control in vivo at 3 mg/kg: 169%

## C[C@@H]1CCCN1Cc1sc(Nc2ncnc(N3CCN(CCC(=O)O)CC3)c2F)nc1-c1cc(Cl)cc(C(F)(F)F)c1 [Example 11, 3-(4-{6-[(4-[3-chloro-5-(trifluoromethyl)phenyl]-5-{[(2R)-2-methylpyrrolidin-1-yl]methyl}-1,3-thiazol-2-yl)amino]-5-fluoropyrimidin-4-yl}piperazin-1-yl)propanoic acid trihydrochloride]
[1]
  activity at 10 µM: 219%
[2]
  response vs control in vivo at 3 mg/kg: 181%

## C[C@@H]1CCCN1Cc1sc(Nc2ncnc(N3CCC(OCC(=O)O)CC3)c2F)nc1-c1cc(F)cc(C(F)(F)F)c1 [Example 12, [(1-{5-fluoro-6-[(4-[3-fluoro-5-(trifluoromethyl)phenyl]-5-{[(2R)-2-methylpyrrolidin-1-yl]methyl}-1,3-thiazol-2-yl)amino]pyrimidin-4-yl}piperidin-4-yl)oxy]acetic acid dihydrochloride]
[1]
  activity at 10 µM: 166%
[2]
  response vs control in vivo at 3 mg/kg: 152%

## CC[C@@H]1CCCN1Cc1sc(Nc2ncnc(N3CCC(OCC(=O)O)CC3)c2F)nc1-c1cc(Cl)cc(C(F)(F)F)c1 [Example 13, [(1-{6-[(4-[3-chloro-5-(trifluoromethyl)phenyl]-5-{[(2R)-2-ethylpyrrolidin-1-yl]methyl}-1,3-thiazol-2-yl)amino]-5-fluoropyrimidin-4-yl}piperidin-4-yl)oxy]acetic acid dihydrochloride]
[1]
  activity at 10 µM: 127%
[2]
  response vs control in vivo at 3 mg/kg: 186%

## C[C@@H]1CCCN1Cc1sc(Nc2cc(N3CCN(CCC(=O)O)CC3)ncn2)nc1-c1cc(F)cc(C(F)(F)F)c1 [Example 14]
[1]
  activity at 10 µM: 169%
[2]
  response vs control in vivo at 3 mg/kg: 121%

## C[C@@H]1CCCN1Cc1sc(Nc2ncnc(N3CCN(CCC(=O)O)CC3)c2F)nc1-c1cc(F)cc(C(F)(F)F)c1 [Example 17]
[1]
  activity at 10 µM: 199%
[2]
  response vs control in vivo at 3 mg/kg: 144%

## Cc1nc(Nc2nc(-c3cc(F)cc(C(F)(F)F)c3)c(CN3CCC[C@H]3C)s2)c(F)c(N2CCN(CCC(=O)O)CC2)n1 [Example 18]
[1]
  activity at 10 µM: 199%
[2]
  response vs control in vivo at 3 mg/kg: 153%

## C[C@@H]1CCCN1Cc1sc(Nc2cc(N3CCN(CCC(=O)O)CC3)ccn2)nc1-c1cc(F)cc(C(F)(F)F)c1 [Example 19]
[1]
  activity at 10 µM: 161%
[2]
  response vs control in vivo at 3 mg/kg: 125%

## COc1c(Nc2nc(-c3cc(F)cc(C(F)(F)F)c3)c(CN3CCC[C@H]3C)s2)ncnc1N1CCN(CCC(=O)O)CC1 [Example 91]
[1]
  activity at 10 µM: 124%
[2]
  response vs control in vivo at 3 mg/kg: 144%
